Test results from ChEMBL document CHEMBL1132180, “Synthesis, pharmacological and biophysical characterization, and membrane-interaction QSAR analysis of cationic amphiphilic model compounds” (J Med Chem, 1999).

Columns and labels:
physchem [1] = assay: physchem
Description: Dissociation constant (pKa)

physchem [2] = conditions: octanol/water
Description: Partition coefficient (logP) (HPLC)

Cavia porcellus [3] = species: Cavia porcellus
Description: Elevation of the threshold alternating current to induce arrhythmia in isolated guinea pig heart.

[4] = Drug induced phase transition temperature with DPPA liposome.; assay type: functional
Bos taurus [5] = species: Bos taurus; assay: Concentration at which Ca+ binding to phosphatidylserine monolayers is reduced to 50% of control; assay type: functional
Bos taurus [6] = species: Bos taurus; assay: Concentration at which Ca+ binding to phosphatidylserine monolayers from bovine brain is reduced to 50% of control; assay type: functional
Cavia porcellus [7] = species: Cavia porcellus; assay: Concentration required to elevate the threshold of alternating current to induce arrhythmia in isolated guinea pig heart by 50%; Vl = Very low activity; assay type: functional
Cavia porcellus [8] = species: Cavia porcellus; assay: Concentration required to elevate the threshold of alternating current to induce arrhythmia in isolated guinea pig heart by 50%; VL = Very low activity; assay type: functional
Cavia porcellus [9] = species: Cavia porcellus; assay: Concentration required to elevate the threshold of alternating current to induce arrhythmia in isolated guinea pig heart by 50%; Vl = very low activity; assay type: functional

| Compound | pKa (physchem [1]) | logP (physchem [2]) | Log AC50 (Cavia porcellus [3]) [uM] | Tt [4] [k] | Log IC50 (Bos taurus [5]) [uM] | Log IC50 (Bos taurus [6]) [uM] | Log AC50 (Cavia porcellus [7]) | Log AC50 (Cavia porcellus [8]) | Log AC50 (Cavia porcellus [9]) |
| --- | --- | --- | --- | --- | --- | --- | --- | --- | --- |
| CN(C)CCCc1ccc(N)cc1.Cl | 10.9 | 0.12 | 3 |  |  |  |  |  |  |
| CN(C)CCCc1ccc(C(C)(C)C)cc1.Cl | 10 | 2.96 | 4.52 | 297 | 5.4 |  |  |  |  |
| CN(C)CCCc1ccc(O)c(Cl)c1.Cl |  | 0.97 | 3.82 | 294 |  |  |  |  |  |
| CN(C)CCCc1ccc(Cl)cc1.Cl | 10.6 | 2.21 | 4.31 | 302 |  | 3.85 |  |  |  |
| C[N+](C)(C)CCCc1ccccc1.[Cl-] |  | 0.44 |  | 307 | 3.4 |  | Very low activity |  |  |
| CN(C)CCC(c1ccccc1)c1ccccc1.Cl | 10 | 2.76 | 4.37 | 308 | 4.85 |  |  |  |  |
| CCOc1ccc(-c2ccc(CCCN(C)C)cc2)cc1.Cl | 9.82 | 3.3 | 4.8 |  |  |  |  |  |  |
| CN(C)CCCc1cccnc1.Cl | 10.7 | 0.57 |  |  | 3.6 |  |  | Very low activity |  |
| CN(C)CCCc1ccc(Br)cc1 | 10.6 | 2.37 |  |  |  |  |  |  |  |
| CCCc1ccc(CCCN(C)C)cc1.Cl | 10.5 | 2.89 | 4.85 | 295 |  |  |  |  |  |
| Cc1ccc(CCCN(C)C)cc1.Cl | 10.8 | 2 | 4.02 | 303 |  |  |  |  |  |
| CN(C)CCCc1ccc2ccccc2c1.Cl | 10.3 | 2.62 | 4.52 | 297 | 4.35 |  |  |  |  |
| CCc1ccc(CCCN(C)C)cc1.Cl | 10.6 | 2.45 | 3.94 | 300 |  |  |  |  |  |
| CN(C)CCCc1ccc(-c2ccccc2)cc1.Cl | 9.88 | 2.99 | 4.8 | 285 | 5.4 |  |  |  |  |
| COc1ccc(-c2ccc(CCC[N+](C)(C)C)cc2)cc1 |  | 2.17 |  |  |  |  | Very low activity |  |  |
| CN(C)CCCc1ccc(O)cc1.Cl |  | 0.35 | 3.29 | 314 | 2.72 |  |  |  |  |
| CN(C)CCCc1ccc([N+](=O)[O-])cc1.Cl | 10.7 | 1.5 |  | 307 | 4.15 |  |  |  | Very low activity |
| COc1ccc(-c2ccc(CCCN(C)C)cc2)cc1.Cl | 9.85 | 2.95 | 4.96 | 296 | 5.4 |  |  |  |  |
| COc1ccc(CCCN(C)C)cc1Cl.Cl | 10.8 | 1.92 | 4.44 |  |  |  |  |  |  |
| CN(C)CCC(c1ccccc1)c1ccc(-c2ccccc2)cc1 (centres undefined) | 9.85 | 3.36 |  | 294 |  |  |  |  |  |
| CN(C)CC(Cc1ccccc1)c1ccccc1.Cl (centres undefined) | 9.93 | 2.59 | 4.13 | 309 |  |  |  |  |  |
| CN(C)CCCc1ccc(-c2ccc(Cl)cc2)cc1.Cl | 9.96 | 3.45 | 5.7 |  |  |  |  |  |  |
| CN(C)CCCc1ccc(-c2ccc(O)cc2)cc1.Cl | 9.32 | 2.1 | 4.43 | 349 | 4.4 |  |  |  |  |
| CC(C)c1ccc(CCCN(C)C)cc1.Cl | 10.5 | 2.75 | 4.22 | 299 |  |  |  |  |  |
| CN(C)CCCc1ccccc1.Cl | 11 | 1.5 | 3.55 | 3.8 | 3 |  |  |  |  |
